# According to patent US9573972B2, “Nurotoxic sterol glycosides” (priority 2008, dated 2017):
# Columns and labels:
# male CD-1 mice = assay: Open field monitoring, SG-fed mice; type: in vivo, mouse; conditions: SG-fed vs control
# From the text: Five-month old male CD-1 mice (30.1-35.7 g, 7.5 cm-8.8 cm) were purchased from Charles River (Wilmington, Mass.). Adult mice were chosen to mimic the mean age of onset of ALS-PDC (Kurland, L. T. (1988a) Trends Neurosci. 11, 51-4; Kurland, L. T., et al. (1994) Amyotrophic lateral sclerosis-parkinsonism-dementia complex on Guam: epidemiologic and etiological perspectives. 109-131). Thirty mice for the SG study were randomly divided into 2 groups (14 control and 16 experimental animals). All animals were housed singly in a virus-free barrier facility in a room maintained at 22° C. under a 12 hour light/dark cycle. The mice were provided ad libitum access to food and water.
# The synthetic SG was mixed with finely ground Purina Chow mouse pellets (Mouse Diet™, Purina) to create the experimental pellets with a SG content of 1000 μg per pellet. Dry materials were blended with a sterile silicon spatula. For every 5 g of standard feed, 2.5 mL of doubly-distilled water (dd)H2O was added and the dough was kneaded and round up into pellets. A single sterol glucoside containing pellet was placed in the feeding tray each morning before the addition of regular mouse chow (ad libitum). All experimental pellets were entirely consumed by the mice each day. Control mice were fed standard mouse chow pellets of identical weight with no additives. SG feeding was conducted daily for 15 weeks and mice were behaviorally monitored until sacrifice at 35 weeks (time point 1) or 52 weeks (time point 2).
# Open field monitoring: Spontaneous activity in an open field is considered one of the most standardized general measures of motor function (Crawley, 2000). The open field test can also reveal stress response in animals (i.e. defensive burying or thigmotaxis) (Karl et al., Exp Toxicol Pathol., 2003, 55(1):69-83). Open field testing of each animal was conducted every two weeks. A single mouse was placed in one of four round open field arena/tubs (approximately 1 m diameter) to permit the testing of four animals per 5 minute trial. […] This in turn, increases the likelihood of detection of fear-based behavior (Crawley, 2000) and minimizes habituation of the animal to the open field (Crawley, 2000). Testing arenas were cleaned with 70% ethanol before the testing of each animal and with quatricide at the end of each testing session. Movements were recorded using a video camera mounted on the ceiling. Video clips were reviewed and were manually scored or automatically analysed on an automated video tracking software (Ethovision® 3.1, Noldus Information Technologies Inc., Leesburg, Va., USA). Scoring was done on videotaped sessions, rather than in-person at the time of testing to avoid the introduction of confounding variables by the presence of an observer in close proximity to the mice (Crawley, 2000).
# [1] = test system: Tyrosine Hydroxylase (dopaminergic cells); assay: Tyrosine hydroxylase immunohistochemistry; type: in vivo, mouse; conditions: striatum, SG-fed, either time-point
# Protocol: Labelling of dopaminergic neurons in brain sections was identified by antibodies for tyrosine hydroxylase (Morrow, C. E., Bandstra, et al., (2001) Neurotoxicol Teratol. 23, 533-44) and indirect immunoperoxidase staining. Sections were incubated in blocking serum for 2 hours then with the primary antibody (rabbit anti-tyrosine hydroxylase, 1:500, Affinity Bioreagents, Golden, Colo., USA) for 3 hours at RT. Sections were rinsed and incubated in biotinylated goat anti-rabbit IgG (1:100; Vector laboratories Inc., Burlingame, USA) for 30 minutes at RT, then visualized using the ABC method (Vectastain Elite ABC kit, Vector Laboratories Inc.).
# The numbers of immunoreactive somata or inclusions were counted across the ventral horn of the spinal cord, across brain hemispheres, or per dorsal or ventral root with the 40× objective lens in a 600 μm/600 μm area within region perimeters defined by a mouse brain atlas (2001). For each animal, eight cross-sections per spinal cord or brain region were studied. An average of both the right and left ventral horn for each of the eight cross sections was generated giving a final averaged number for each animal in each of the spinal cord areas. […]
smiles,measurement,setting,value
"CC[C@H](/C=C/[C@@H](C)[C@H]1CC[C@H]2[C@@H]3CC=C4C[C@@H](O[C@@H]5O[C@H](CO)[C@@H](O)[C@H](O)[C@H]5O)CC[C@]4(C)[C@H]3CC[C@]12C)C(C)C [SG, Stigmasterol β-D-Glucopyranoside]",Total distance moved,male CD-1 mice; Time-point 1 (35 wk),Total distance moved (ns)
same,Total distance to zone border,male CD-1 mice; Time-point 1 (35 wk),Total distance to zone border (ns)
same,Total turn angle,male CD-1 mice; Time-point 1 (35 wk),Total turn angle (ns)
same,Total distance to zone border,male CD-1 mice; Time-point 2 (52 wk),Total distance to zone border* (*p < 0.05)
same,Decrease in tyrosine hydroxylase optical density in striata,[1],not significant
